Reference: PMC10979456, “Trinucleotide mRNA Cap Analogue N6-Benzylated at the Site of Posttranscriptional ^m6Am Mark Facilitates mRNA Purification and Confers Superior Translational Properties In Vitro and In Vivo” (Journal of the American Chemical Society, 2024)

Experiments:
Assay in all cases: time-synchronized fluorescence quenching titration
Type in all cases: binding
heIF4E1a = molecular target: T1, heIF4E1a (Homo sapiens, UniProt P06730)
T1 construct: gene EIF4E; not described in main text (experimental details in supplement)

h4EHP (eIF4E2) = molecular target: T2, h4EHP (eIF4E2) (Homo sapiens, UniProt O60573)
T2 construct: not described in main text (experimental details in supplement)
T2 sequence (O60573 1-245): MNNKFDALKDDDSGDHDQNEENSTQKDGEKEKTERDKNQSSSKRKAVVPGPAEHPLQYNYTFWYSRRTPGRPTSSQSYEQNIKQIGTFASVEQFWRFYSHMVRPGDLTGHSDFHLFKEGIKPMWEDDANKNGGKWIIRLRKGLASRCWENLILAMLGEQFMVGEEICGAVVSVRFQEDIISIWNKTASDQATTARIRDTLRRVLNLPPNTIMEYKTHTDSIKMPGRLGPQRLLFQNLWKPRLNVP
Text: time-synchronized fluorescence quenching titration on h4EHP (eIF4E2)

heIF4E3 = molecular target: T3, heIF4E3 (Homo sapiens, UniProt Q8N5X7)
T3 construct: gene EIF4E3; not described in main text (experimental details in supplement)
Text: time-synchronized fluorescence quenching titration on heIF4E3

T1 sequence (P06730 2-217): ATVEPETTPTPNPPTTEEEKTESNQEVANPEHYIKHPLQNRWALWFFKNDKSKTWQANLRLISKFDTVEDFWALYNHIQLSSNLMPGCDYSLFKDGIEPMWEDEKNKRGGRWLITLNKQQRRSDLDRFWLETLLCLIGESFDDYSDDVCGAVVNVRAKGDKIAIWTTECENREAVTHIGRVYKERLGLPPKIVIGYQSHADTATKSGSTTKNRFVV
T3 sequence (Q8N5X7 whole entry): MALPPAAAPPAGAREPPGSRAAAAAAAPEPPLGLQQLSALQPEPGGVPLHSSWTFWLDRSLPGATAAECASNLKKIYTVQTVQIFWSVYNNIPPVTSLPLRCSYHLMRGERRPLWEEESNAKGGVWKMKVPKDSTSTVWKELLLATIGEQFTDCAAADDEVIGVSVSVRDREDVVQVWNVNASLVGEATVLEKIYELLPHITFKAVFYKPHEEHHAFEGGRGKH

Kd (heIF4E1a)	Kd (h4EHP (eIF4E2))	Kd (heIF4E3)	SMILES
23.9 ± 0.5 nM	687 ± 10 nM	95.7 ± 1.7 nM	CO[C@@H]1[C@H](OP(=O)(O)OC[C@H]2O[C@@H](n3cnc4c(=O)[nH]c(N)nc43)[C@H](O)[C@@H]2O)[C@@H](COP(=O)(O)OP(=O)(O)OP(=O)(O)OC[C@H]2O[C@@H](n3c[n+](C)c4c(=O)[nH]c(N)nc43)[C@H](O)[C@@H]2O)O[C@H]1n1cnc2c(NCc3ccccc3)ncnc21 [compound 1, m^7Gppp^Bn6AmpG]
–	611 ± 19 nM	129 ± 14 nM	C[n+]1cn([C@@H]2O[C@H](COP(=O)(O)OP(=O)(O)OP(=O)(O)O)[C@@H](O)[C@H]2O)c2nc(N)[nH]c(=O)c21 [m^7GTP]
42.1 ± 0.7 nM	1020 ± 19 nM	153 ± 3 nM	CO[C@@H]1[C@H](OP(=O)(O)OC[C@H]2O[C@@H](n3cnc4c(=O)[nH]c(N)nc43)[C@H](O)[C@@H]2O)[C@@H](COP(=O)(O)OP(=O)(O)OP(=O)(O)OC[C@H]2O[C@@H](n3c[n+](C)c4c(=O)[nH]c(N)nc43)[C@H](O)[C@@H]2O)O[C@H]1n1cnc2c(N)ncnc21 [m^7GpppAmpG]
46.4 ± 0.6 nM	1340 ± 32 nM	140 ± 4 nM	CNc1ncnc2c1ncn2[C@@H]1O[C@H](COP(=O)(O)OP(=O)(O)OP(=O)(O)OC[C@H]2O[C@@H](n3c[n+](C)c4c(=O)[nH]c(N)nc43)[C@H](O)[C@@H]2O)[C@@H](OP(=O)(O)OC[C@H]2O[C@@H](n3cnc4c(=O)[nH]c(N)nc43)[C@H](O)[C@@H]2O)[C@H]1OC [m^7Gppp^m6AmpG]
